Legend:
[1] = Detection of encapsulation efficiency, drug loading concentration and total RNA concentration (RiboGreen); format: physicochemical
From the text: Encapsulation efficiency is a key quality attribute of liposomes, which refers to the percentage of drug content encapsulated in the lipid bimolecular layer accounting for the total drug dose and can reflect the degree of drug encapsulation in liposomes. The Chinese Pharmacopoeia stipulates that the encapsulation efficiency should generally not be less than 80%.
The drug loading amount is the ratio of the amount of drug in the liposome to the total amount of drug and carrier in the liposome. The drug loading amount directly affects the clinical application dose of the drug. […] The drug loading concentration is proportional to the drug loading amount, and the relative proportion of the drug loading concentrations can represent the relative proportion of the drug loading amounts. The relative ratio of the total RNA concentrations may represent the relative ratio of the amounts of mRNA carried by the LNP formulations.
1×TE buffer, 0.1% Triton X-100 buffer, RiboGreen reagent (1: 200) and mRNA standard stock solution were prepared.
An appropriate amount of the sample was added to an appropriate amount of 1×TE buffer, and the mixture was diluted to obtain a solution containing approximately […] sample per 1 mL. Then the sample was added to a 96-well plate, and 50 μL of the diluted test sample or the mRNA standard stock solution was added to each well, then 1×TE buffer and 0.1% Triton X-100 buffer were added. The sample was incubated at 37° C. for 10 minutes, and 100 μL RiboGreen reagent (1:200) was added to each well of the test sample in the 96-well plate. The sample was centrifugated, and the data were read using a microplate reader, and processed.

293T cells [2] = assay: Fluorescent detection of Fluc-mRNA (cell transfection efficiency of LNP formulations); format: cell-based
Experimental: Seeding plate: The cells in the culture dish were digested and counted. Cells were spread in a 96-well plate at 10,000 cells per well and in a 12-well plate at 150,000 cells per well. Cells were cultured overnight until the cells adhered to the wall.
The corresponding reagents were added according to the instructions of the Gaussia Luciferase Assay Kit, and the fluorescence expression intensity of each well was detected by an IVIS fluorescence detection system.

female BALB/C mice = assay: In vivo imaging in mice of Fluc-mRNA LNP formulations (mRNA expression and duration)
Experimental: The LNP formulation (prepared according to Example 4) containing […] Fluc-mRNA was injected intramuscularly into female BALB/C mice aged 4-6 weeks and weighed 17-19 g, and the mice were intraperitoneally injected with fluorescent imaging substrate at specific time points after administration (6h, 24 h, 48h and 7d), where the mice were allowed to free move for 5 minutes, and then the average radiation intensity (corresponding to fluorescence expression intensity) of the protein expression of the mRNA carried by the LNP in the mice was detected by the IVIS Spectrum small animal in vivo imaging system.

293T cells [3] = assay: Fluorescent detection of Fluc-mRNA (cell transfection efficiency of LNP formulations); format: cell-based; remark: listed apart in the source
[4] = LNP formulation prepared from the cationic lipid

Compound: CCCCCCCCC(CCCCCCCC)COC(=O)CCCCCN(CCCO)CCN(CCCO)CCCCCC(=O)OCC(CCCCCCCC)CCCCCCCC [YK-422, di(2-octyldecyl) 6,6′-(ethane-1,2-diyl-bis((3-hydroxypropyl)azanediyl))dihexanoate]
- Drug loading concentration [1, 4]: 45.05 µg/mL
- Encapsulation efficiency [1, 4]: 92.4%
- Total RNA concentration [1, 4]: 45.76 µg/mL
- encapsulation efficiency higher than ALC-0315 ([1]; difference vs ALC-0315): 29.1%
- encapsulation efficiency higher than HIMA ([1]; difference vs HIMA (HHMA)): 32.2%
- encapsulation efficiency higher than SM-102 ([1]; difference vs SM-102): 29.5%
- encapsulation efficiency higher than YK-009 ([1]; difference vs YK-009): 29.0%
- encapsulation efficiency higher than compound 21 ([1]; difference vs compound 21): 34.4%
- encapsulation efficiency higher than compound 23 ([1]; difference vs compound 23): 36.2%
- drug loading concentration, times that of ALC-0315 ([1]; ratio vs ALC-0315): 1.68
- total RNA concentration, times that of ALC-0315 ([1]; ratio vs ALC-0315): 1.21
- drug loading concentration, times that of HIMA ([1]; ratio vs HIMA (HHMA)): 1.38
- total RNA concentration, times that of HIMA ([1]; ratio vs HIMA (HHMA)): 1.26
- drug loading concentration, times that of SM-102 ([1]; ratio vs SM-102): 1.70
- total RNA concentration, times that of SM-102 ([1]; ratio vs SM-102): 1.27
- drug loading concentration, times that of YK-009 ([1]; ratio vs YK-009): 1.64
- total RNA concentration, times that of YK-009 ([1]; ratio vs YK-009): 1.19
- drug loading concentration, times that of compound 21 ([1]; ratio vs compound 21): 2.05
- total RNA concentration, times that of compound 21 ([1]; ratio vs compound 21): 1.58
- drug loading concentration, times that of compound 23 ([1]; ratio vs compound 23): 2.25
- total RNA concentration, times that of compound 23 ([1]; ratio vs compound 23): 1.47
- Relative light unit (RLU) (293T cells [2]; LNP with 0.3 μg Fluc-mRNA, 96-well plate, 24 hours): 6432971 RLU
- cell transfection efficiency, times that of YK-415 (293T cells [2]; ratio vs YK-415): 21.59
- cell transfection efficiency, times that of YK-417 (293T cells [2]; ratio vs YK-417): 54.85
- cell transfection efficiency, times that of YK-418 (293T cells [2]; ratio vs YK-418): 57.82
- cell transfection efficiency, times that of YK-424 (293T cells [2]; ratio vs YK-424): 2.23
- RLU value, times that of compound 21 (293T cells [2]; ratio vs compound 21): 4.26
- RLU value, times that of compound 23 (293T cells [2]; ratio vs compound 23): 4.59
- average radiation intensity, times that of ALC-0315 (female BALB/C mice; 6 h): 1.58
- average radiation intensity, times that of HHMA (female BALB/C mice; 6 h): 2.01
- average radiation intensity, times that of SM-102 (female BALB/C mice; 6 h): 1.92
- average radiation intensity, times that of compound 21 (female BALB/C mice; 6 h): 2.21
- average radiation intensity, times that of compound 23 (female BALB/C mice; 6 h): 2.29
- expression amount in mice, times that of YK-415 (female BALB/C mice; 6 h): 11.28
- expression amount in mice, times that of YK-417 (female BALB/C mice; 6 h): 21.98
- mRNA expression in mice, times that of YK-411 (female BALB/C mice; 6 h): 227.25
- average radiation intensity, times that of ALC-0315 (female BALB/C mice; 24 h): 3.73
- average radiation intensity, times that of HHMA (female BALB/C mice; 24 h): 5.90
- average radiation intensity, times that of SM-102 (female BALB/C mice; 24 h): 5.74
- average radiation intensity, times that of compound 21 (female BALB/C mice; 24 h): 6.38
- average radiation intensity, times that of compound 23 (female BALB/C mice; 24 h): 7.01
- expression amount in mice, times that of YK-415 (female BALB/C mice; 24 h): 10.98
- expression amount in mice, times that of YK-417 (female BALB/C mice; 24 h): 35.43
- mRNA expression in mice, times that of YK-411 (female BALB/C mice; 24 h): 350.21
- average radiation intensity, times that of ALC-0315 (female BALB/C mice; 48 h): 6.76
- average radiation intensity, times that of HHMA (female BALB/C mice; 48 h): 8.14
- average radiation intensity, times that of SM-102 (female BALB/C mice; 48 h): 8.26
- average radiation intensity, times that of compound 21 (female BALB/C mice; 48 h): 8.60
- average radiation intensity, times that of compound 23 (female BALB/C mice; 48 h): 8.24
- expression amount in mice, times that of YK-415 (female BALB/C mice; 48 h): 17.19
- expression amount in mice, times that of YK-417 (female BALB/C mice; 48 h): 38.52
- mRNA expression in mice, times that of YK-411 (female BALB/C mice; 48 h): 278.33
- average radiation intensity, times that of ALC-0315 (female BALB/C mice; 7 d): 1.35
- average radiation intensity, times that of HHMA (female BALB/C mice; 7 d): 1.59
- average radiation intensity, times that of SM-102 (female BALB/C mice; 7 d): 1.41
- average radiation intensity, times that of compound 21 (female BALB/C mice; 7 d): 1.49
- average radiation intensity, times that of compound 23 (female BALB/C mice; 7 d): 1.55
- expression amount in mice, times that of YK-415 (female BALB/C mice; 7 d): 2.34
- expression amount in mice, times that of YK-417 (female BALB/C mice; 7 d): 4.15
- mRNA expression in mice, times that of YK-411 (female BALB/C mice; 7 d): 19.74
- average radiation intensity, 6 h (female BALB/C mice; Fluc-mRNA LNP intramuscular, 6 h after administration): 1329410
- average radiation intensity, 24 h (female BALB/C mice; Fluc-mRNA LNP intramuscular, 24 h after administration): 708120
- average radiation intensity, 48 h (female BALB/C mice; Fluc-mRNA LNP intramuscular, 48 h after administration): 271372
- average radiation intensity, 7 d (female BALB/C mice; Fluc-mRNA LNP intramuscular, 7 d after administration): 9476
- RLU value, times that of ALC-0315 (293T cells [3]; ratio vs ALC-0315): 2.94
- RLU value, times that of HHMA (293T cells [3]; ratio vs HHMA): 3.09
- RLU value, times that of Lipofectamine 3000 (293T cells [3]; ratio vs Lipofectamine 3000): 5.36
- RLU value, times that of YK-009 (293T cells [3]; ratio vs YK-009): 1.25
- RLU value, times that of YK-405 (293T cells [3]; ratio vs YK-405): 2.01
- RLU value, times that of YK-406 (293T cells [3]; ratio vs YK-406): 82.21
- RLU value, times that of YK-408 (293T cells [3]; ratio vs YK-408): 4.36
- RLU value, times that of YK-409 (293T cells [3]; ratio vs YK-409): 9.60
- RLU value, times that of YK-410 (293T cells [3]; ratio vs YK-410): 15.77
- cell transfection efficiency, times that of YK-412 (293T cells [3]; ratio vs YK-412): 1.91
- cell transfection efficiency, times that of YK-413 (293T cells [3]; ratio vs YK-413): 4.67
- cell transfection efficiency, times that of YK-414 (293T cells [3]; ratio vs YK-414): 14.49
- cell transfection efficiency, times that of YK-416 (293T cells [3]; ratio vs YK-416): 1.62
- cell transfection efficiency, times that of YK-419 (293T cells [3]; ratio vs YK-419): 2.03
- cell transfection efficiency, times that of YK-420 (293T cells [3]; ratio vs YK-420): 1.60
- cell transfection efficiency, times that of YK-421 (293T cells [3]; ratio vs YK-421): 13.79
